Read-outs that look alike come from different tables or passages of the source.
Legend:
Format in all cases: cell-based, human
CNXF U-87 MG = experiment: CellTiter-Blue 2D monolayer assay (Example 1), glioblastoma; conditions: for Test/Control (%): 72 h
Protocol: Compound 85 was assessed in 10 human tumor cell lines (see Table 3) for anti-cancer activity in vitro using a CellTiter-Blue® based 2D monolayer assay.
CellTiter-Blue® Cell Viability Assay: Tumor cells were grown at 37° C. in a humidified atmosphere with 5% CO2 in RPMI medium, supplemented with 10% (v/v) fetal calf serum and 50 μg/ml gentamicin (140 μl/well). Cultures were incubated at 37° C. and 5% CO2 in a humidified atmosphere. After 24 hours, 10 μl of Compound 85 was added, and left on the cells for another 72 hours (incubation period). Compound 85 was tested at 5 concentrations (0.003 μM, 0.03 μM, 0.3 μM, 3 μM, and 30 μM) and serially diluted in DMSO, mixed with cell culture medium, and added to the assay plates by using a Tecan Freedom EVO 200 robotic platform. The DMSO concentration was kept constant at 0.3% yip across the assay plate. Every 96 well plate included six DMSO-treated control wells and Compound 85-treated wells in duplicate at 5 concentrations. Viability of cells was quantified using the CellTiter-Blue® cell viability assay (Promega G8081). After incubation of cells, the CellTiter-Blue® reagent was brought to ambient temperature. Next, 20 μl of CellTiter-Blue® reagent were added to each well. After incubation tier up to 4 hours, fluorescence (FU) was measured using the EnSpire® multimode plate reader (Perkin Elmer) ([…]).
Data Evaluation: Sigmoidal concentration-response curves were fitted to the data points (test-versus-control; T/C values) obtained for each tumor model using 4 parameter non-linear curve fit (Charles River DRS Datawarehouse Software). Drug effects are expressed in terms of the percentage of the fluorescence signal, obtained by comparison of the mean signal in the treated wells with the mean signal of the untreated controls (T/C-value [%]) (Table 4). IC50 and IC70 values were reported as relative and absolute IC50 and IC70 values (Table 5). The absolute IC50 and IC70 values reflect the concentration of Compound 85 that achieves T/C=50% and T/C=30%, respectively. The relative IC50 value is the concentration of Compound 85 that gives a response half way between the top and bottom plateau of the sigmoidal concentration-response curve (inflection point of the curve).

MEXF 1341 = experiment: CellTiter-Blue Cell Viability Assay (Example 2), melanoma; conditions: for T/C %: 72 h
Source text: (§1) The CellTiter-Blue® Cell Viability Assay was used to assess the viability of cells from various cancer cell lines, in the presence or absence of Compound 85 (at different concentrations). This assay provides a homogeneous, fluorometric method for estimating the number of viable cells present in multi-well plates. Viable cells retain the ability to reduce resazurin to resorufin, which is highly fluorescent. […] The fluorescence produced is proportional to the number of viable cells. There is a linear relationship between cell number and fluorescence.
(§2) Cancer cells (see Table 6) were harvested from exponential phase cultures, counted and plated in 96 well flat-bottom microtiter plates, at a cell density 6,000-20,000 cells/well, depending on the cell line's growth rate. The culture medium was supplemented with 10% (v/v) foetal calf serum and 50 μg/mL gentamicin (140 μL/well). Cultures were incubated at 37° C. and 5% CO2 in a humidified atmosphere.
(§3) Compound 85 was serially diluted in DMSO, and five Compound 85 concentrations in half-log increments were used: 0.03 μM, 0.09 μM, 0.30 μM, 1.0 μM, and 3.0 μM. After 24 h, 10 μL of Compound 85 (dissolved in DMSO) or control (DMSO) medium were added, in duplicates, and left on the cells for another 72 h. Compound 85 solutions were added to the assay plates using a Tecan Freedom EVO 200 robotic platform. The DMSO concentration was kept constant at 0.3% v/v across the assay plate.
(§4) After incubation of up to 72 hours, fluorescence (FU) was measured using the EnSpire® multimode plate reader (Perkin Elmer) (excitation λ=570 nm, emission λ=600 nm).
(§5) Cancer cell lines used: Compound 85's anti-cancer effect was tested in 20 human cancer-cell lines representing nine cancer types (Table 6).
(§6) The percentage of viable cells in the presence of Compound 85 (Test condition, T), at different concentrations, are presented in Table 7 and expressed as a percentage of the number of viable cells in the presence of DMSO without Compound 85 (Control condition, C).
(§7) The relative IC50 is determined as the Compound 85 concentration giving a response halfway between the maximum cell viability signal (i.e., a 100% cell viability, no Compound 85 response) and the minimal viability signal (i.e. maximum cell viability inhibition achieved by Compound 85), in a sigmoidal concentration-effect curve.
(§8) The absolute IC50 is determined as the concentration that is associated with a T/C ratio of 50%.

OVXF 899 = experiment: CellTiter-Blue Cell Viability Assay (Example 2), ovarian; conditions: for T/C %: 72 h
Source text: as §1, §2, §3, §4, §5, §6, §7, §8

OVXF A2780 = experiment: as above; conditions: for T/C %: 72 h
Source text: as §1, §2, §3, §4, §5, §6, §7, §8

SXFO 678 = experiment: CellTiter-Blue Cell Viability Assay (Example 2), osteosarcoma; conditions: for T/C %: 72 h
Source text: as §1, §2, §3, §4, §5, §6, §7, §8

SXFO Saos-2 = experiment: as above; conditions: for T/C %: 72 h
Source text: as §1, §2, §3, §4, §5, §6, §7, §8

With `CC(C)(O)Cn1nc(-c2ccccc2)c2c(Cl)c(-c3ccccc3)nnc21` [Compound 85] the “Rel. IC70” value (CNXF U-87 MG) was 987 nM, the “Test/Control (%)” value (CNXF U-87 MG; 0.003 μM) was 99% and the “Test/Control (%)” value (CNXF U-87 MG; 0.03 μM) was 102%. For the same compound, the “Test/Control (%)” value (CNXF U-87 MG; 0.3 μM) was 102%, the “Test/Control (%)” value (CNXF U-87 MG; 3 μM) was 1% and the “Test/Control (%)” value (CNXF U-87 MG; 30 μM) was 4%. For the same compound, the “Abs. IC70” value (CNXF U-87 MG; T/C=30%) was 994 nM, the IC50 (CNXF U-87 MG; T/C=50%, read-out: Abs. IC50) was 940 nM and the “Bot. (%)” value (CNXF U-87 MG; bottom plateau of curve) was 3%. For the same compound, the IC50 (CNXF U-87 MG; read-out: Rel. IC50) was 935 nM, the “Top (%)” value (CNXF U-87 MG; top plateau of curve) was 101% and the “Absolute IC70” value (MEXF 1341) was 445 nM. For the same compound, the “Relative IC70” value (MEXF 1341) was 451 nM, the T/C % (MEXF 1341; 0.03 μM) was 97% and the T/C % (MEXF 1341; 0.095 μM) was 91%. It also gave a T/C % (MEXF 1341; 0.3 μM) of 82%, a T/C % (MEXF 1341; 0.95 μM) of 0% and a T/C % (MEXF 1341; 3.0 μM) of 0%. For the same compound, the IC50 (MEXF 1341; read-out: Absolute IC50) was 391 nM, the IC50 (MEXF 1341; read-out: Relative IC50) was 399 nM and the “Absolute IC70” value (OVXF 899) was 418 nM. The “Relative IC70” value (OVXF 899) was 423 nM, the T/C % (OVXF 899; 0.03 μM) was 98% and the T/C % (OVXF 899; 0.095 μM) was 94%. It also gave a T/C % (OVXF 899; 0.3 μM) of 65%, a T/C % (OVXF 899; 0.95 μM) of 1% and a T/C % (OVXF 899; 3.0 μM) of 0%. The IC50 (OVXF 899; read-out: Absolute IC50) was 346 nM, the IC50 (OVXF 899; read-out: Relative IC50) was 352 nM and the “Absolute IC70” value (OVXF A2780) was 463 nM. The “Relative IC70” value (OVXF A2780) was 463 nM, the T/C % (OVXF A2780; 0.03 μM) was 102% and the T/C % (OVXF A2780; 0.095 μM) was 96%. For the same compound, the T/C % (OVXF A2780; 0.3 μM) was 87%, the T/C % (OVXF A2780; 0.95 μM) was 0% and the T/C % (OVXF A2780; 3.0 μM) was 0%. For the same compound, the IC50 (OVXF A2780; read-out: Absolute IC50) was 405 nM, the IC50 (OVXF A2780; read-out: Relative IC50) was 406 nM and the “Absolute IC70” value (SXFO 678) was 532 nM. For the same compound, the “Relative IC70” value (SXFO 678) was 531 nM, the T/C % (SXFO 678; 0.03 μM) was 101% and the T/C % (SXFO 678; 0.095 μM) was 97%. For the same compound, the T/C % (SXFO 678; 0.3 μM) was 91%, the T/C % (SXFO 678; 0.95 μM) was 2% and the T/C % (SXFO 678; 3.0 μM) was 1%. The IC50 (SXFO 678; read-out: Absolute IC50) was 458 nM, the IC50 (SXFO 678; read-out: Relative IC50) was 458 nM and the “Absolute IC70” value (SXFO Saos-2) was 747 nM. For the same compound, the “Relative IC70” value (SXFO Saos-2) was 750 nM, the T/C % (SXFO Saos-2; 0.03 μM) was 97% and the T/C % (SXFO Saos-2; 0.095 μM) was 93%. It also gave a T/C % (SXFO Saos-2; 0.3 μM) of 99%, a T/C % (SXFO Saos-2; 0.95 μM) of 1% and a T/C % (SXFO Saos-2; 3.0 μM) of 0%. For the same compound, the IC50 (SXFO Saos-2; read-out: Absolute IC50) was 709 nM and the IC50 (SXFO Saos-2; read-out: Relative IC50) was 712 nM.

Reference: patent US12544373B2, “Treatment of cancer, inflammatory diseases and autoimmune diseases” (Usher III Initiative, Inc., priority 2020, dated 2026)
